Counter-ions that a name gives are not always drawn.
Legend:
MOLM14 cells = test: Proliferation assay (spheroid growth, 8 days), MOLM14; format: cell-based, human; settings: Homo sapiens, MOLM-14, […], MOLM14, 8 days; read-out: spheroid assay_OneTime MOLM14 IC50;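 also: spheroid size read as confluence by live-cell imaging, compounds added at a range of concentrations with 0.3% DMSO, DMSO-treated wells = 0%, highest reference dose = low control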
KO-52 cells = test: Proliferation assay (spheroid growth, 8 days), KO-52 control cell line; format: cell-based, human; settings: Homo sapiens, […], read-out: spheroid assay_OneTime KO-52 IC50
How it was run: (§1)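 Cells were seeded at 200 (MOLM14, OCI-AML3) or 300 (KO-52) per well in ultra-low attachment round-bottom plates with compounds at several concentrations, 0.3% DMSO, and grown 8 days at 37° C. Spheroid confluence was imaged on day 8; IC50 came from a variable-slope fit normalized to DMSO and high-dose reference compound.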

MEIS1 mRNA = MEIS1 mRNA expression assay (Quantigene Singleplex) in MOLM14 cells; format: cell-based, human; settings: Homo sapiens, MOLM-14, 48 h, 48 hours incubation;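 also: MEIS1 transcript levels read by probe hybridization and normalized to RPL28 mRNA, with IC50 fitted to fold changes across a rising compound concentration series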
[1] = molecular target: menin/MLL (terbium chelate-labeled menin, FITC-MBM1 peptide) (Homo sapiens (Human), UniProt O00255); test: Menin/MLL homogenous time-resolved fluorescence (HTRF) assay; format: binding; settings: HTRF-30 min incubation IC50, 30 min incubation;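 also: IC50 from percent inhibition of HTRF signal, normalized between wells without competitor and wells with a saturating competitor that displaces FITC-MBM1 from His-tagged menin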
menin/MLL (terbium chelate-labeled menin, FITC-MBM1 peptide), sequence (O00255 other isoform, or with tags, fused parts or gaps): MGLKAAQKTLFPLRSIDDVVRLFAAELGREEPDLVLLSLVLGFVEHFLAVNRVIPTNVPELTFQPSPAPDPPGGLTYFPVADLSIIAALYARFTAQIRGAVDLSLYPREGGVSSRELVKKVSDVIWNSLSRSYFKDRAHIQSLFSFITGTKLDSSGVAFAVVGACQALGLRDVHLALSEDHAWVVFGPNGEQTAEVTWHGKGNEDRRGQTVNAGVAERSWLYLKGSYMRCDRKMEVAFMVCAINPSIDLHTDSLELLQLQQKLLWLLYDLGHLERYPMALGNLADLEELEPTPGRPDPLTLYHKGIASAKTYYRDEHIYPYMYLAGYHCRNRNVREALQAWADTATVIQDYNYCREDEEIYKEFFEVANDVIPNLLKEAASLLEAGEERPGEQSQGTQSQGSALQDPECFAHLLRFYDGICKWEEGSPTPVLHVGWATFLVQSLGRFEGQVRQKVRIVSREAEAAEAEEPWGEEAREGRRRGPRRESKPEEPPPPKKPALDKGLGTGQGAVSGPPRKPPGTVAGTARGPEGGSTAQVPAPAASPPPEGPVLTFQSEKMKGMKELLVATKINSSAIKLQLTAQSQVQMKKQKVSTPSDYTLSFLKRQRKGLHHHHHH

OCI-AML3 cells = test: Proliferation assay (spheroid growth, 8 days), OCI-AML3; format: cell-based, human; settings: Homo sapiens, OCI-AML-3, […], OCI-AML3, 8 days
How it was run: as §1

SMILES	IC50 (MOLM14 cells)	IC50 (MEIS1 mRNA)	IC50 [1]	IC50 (OCI-AML3 cells)	IC50 (KO-52 cells)
CCN(C(=O)c1cc(F)ccc1Oc1nncnc1N1CCC2(C1)CN([C@H](CCCN[C@H](CO)COC)C(C)C)C2)C(C)C [Compound 162, N-ethyl-5-fluoro-2-((5-(2-((R)-6-(((R)-1-hydroxy-3-methoxypropan-2-yl)amino)-2-methylhexan-3-yl)-2,6-diazaspiro[3.4]octan-6-yl)-1,2,4-triazin-6-yl)oxy)-N-isopropylbenzamide]	13 nM	~19 nM	0.096 nM	26 nM	> 15000 nM
CCN(C(=O)c1cc(F)ccc1Oc1nncnc1N1CCC2(C1)CN([C@H](CCCN[C@@H](CO)COC)C(C)C)C2)C(C)C [Compound 163, N-ethyl-5-fluoro-2-((5-(2-((R)-6-(((S)-1-hydroxy-3-methoxypropan-2-yl)amino)-2-methylhexan-3-yl)-2,6-diazaspiro[3.4]octan-6-yl)-1,2,4-triazin-6-yl)oxy)-N-isopropylbenzamide]	18 nM	20 nM	0.089 nM	120 nM	> 15000 nM
CCN(C(=O)c1cc(F)ccc1Oc1nncnc1N1CCC2(C1)CN([C@H](CCCN(C)[C@H](CO)COC)C(C)C)C2)C(C)C [Compound 165, N-ethyl-5-fluoro-2-(5-(2-((R)-6-((R)-1-hydroxy-3-methoxypropan-2-yl)(methyl)amino)-2-methylhexan-3-yl)-2,6-diazaspiro[3.4]octan-6-yl)-1,2,4-triazin-6-yl)oxy)-N-isopropylbenzamide fumarate]	30 nM	23 nM	0.06 nM	99 nM	> 15000 nM
CCN(C(=O)c1cc(F)ccc1Oc1nncnc1N1CCC2(C1)CN([C@H](CCCN(C)[C@@H](CO)COC)C(C)C)C2)C(C)C [Compound 167, N-ethyl-5-fluoro-2-((5-(2-((R)-6-(((S)-1-hydroxy-3-methoxypropan-2-yl)(methyl)amino)-2-methylhexan-3-yl)-2,6-diazaspiro[3.4]octan-6-yl)-1,2,4-triazin-6-yl)oxy)-N-isopropylbenzamide fumarate]	17 nM	18 nM	0.16 nM	65 nM	> 15000 nM
CCN(C(=O)c1cc(F)ccc1Oc1nncnc1N1CCC2(C1)CN([C@H](CCCNCC(CO)OC)C(C)C)C2)C(C)C (stereo partly drawn) [Compound 168, N-ethyl-5-fluoro-2-((5-(2-((3R)-6-((3-hydroxy-2-methoxypropyl)amino)-2-methylhexan-3-yl)-2,6-diazaspiro[3.4]octan-6-yl)-1,2,4-triazin-6-yl)oxy)-N-isopropylbenzamide]	49 nM	74 nM	0.1 nM	370 nM	> 15000 nM

Further lines, with some results ahead:

IC50 (MOLM14 cells)	IC50 (MEIS1 mRNA)	IC50 [1]	IC50 (OCI-AML3 cells)	SMILES	IC50 (KO-52 cells)
25 nM	37 nM	0.1 nM	41 nM	CCN(C(=O)c1cc(F)ccc1Oc1nncnc1N1CCC2(C1)CN([C@H](CCCN(C)CC(CO)OC)C(C)C)C2)C(C)C (stereo partly drawn) [Compound 170, N-ethyl-5-fluoro-2-((5-(2-((3R)-6-((3-hydroxy-2-methoxypropyl)(methyl)amino)-2-methylhexan-3-yl)-2,6-diazaspiro[3.4]octan-6-yl)-1,2,4-triazin-6-yl)oxy)-N-isopropylbenzamide fumarate]	> 15000 nM
23 nM	13 nM	0.13 nM	38 nM	CCN(C(=O)c1cc(F)ccc1Oc1nncnc1N1CCC2(C1)CN([C@H](CCCNCC(COC)OC)C(C)C)C2)C(C)C (stereo partly drawn) [Compound 172, 2-((5-(2-((3R)-6-((2,3-dimethoxypropyl)amino)-2-methylhexan-3-yl)-2,6-diazaspiro[3.4]octan-6-yl)-1,2,4-triazin-6-yl)oxy)-N-ethyl-5-fluoro-N-isopropylbenzamide fumarate]	13400 nM
33 nM	27 nM	0.13 nM	59 nM	CCN(C(=O)c1cc(F)ccc1Oc1nncnc1N1CCC2(C1)CN([C@H](CCCN(C)C(C)CC(=O)N(C)C)C(C)C)C2)C(C)C (stereo partly shown) [Compound 179, fumarate]	> 15000 nM

Reference: patent US12473295B2, “Substituted straight chain spiro derivatives” (Janssen Pharmaceutica NV, priority 2019, dated 2025)
